Results: US12661342B2, “Heteroaryl compounds and therapeutic uses thereof in conditions associated with the alteration of the activity of beta-glucocerebrosidase” (GT GAIN THERAPEUTICS SA, priority 2019, dated 2026)

What follows are molecules tested against T1, β-glucocerebrosidase (Homo sapiens, UniProt P04062, L483P) (assay: Enhancement of β-glucocerebrosidase activity measured in Gaucher disease fibroblasts (4-MU-β-D-glucopyranoside substrate, intact cells)). Conditions: GBA fibroblasts bearing L444P (GM08760A, homozygous p.L444P); compound at concentrations between 6 and 50 μM; 4 days incubation.
T1 construct: host or cells: human Gaucher disease patient fibroblasts GM08760A
T1 sequence (P04062 40-536 L483P): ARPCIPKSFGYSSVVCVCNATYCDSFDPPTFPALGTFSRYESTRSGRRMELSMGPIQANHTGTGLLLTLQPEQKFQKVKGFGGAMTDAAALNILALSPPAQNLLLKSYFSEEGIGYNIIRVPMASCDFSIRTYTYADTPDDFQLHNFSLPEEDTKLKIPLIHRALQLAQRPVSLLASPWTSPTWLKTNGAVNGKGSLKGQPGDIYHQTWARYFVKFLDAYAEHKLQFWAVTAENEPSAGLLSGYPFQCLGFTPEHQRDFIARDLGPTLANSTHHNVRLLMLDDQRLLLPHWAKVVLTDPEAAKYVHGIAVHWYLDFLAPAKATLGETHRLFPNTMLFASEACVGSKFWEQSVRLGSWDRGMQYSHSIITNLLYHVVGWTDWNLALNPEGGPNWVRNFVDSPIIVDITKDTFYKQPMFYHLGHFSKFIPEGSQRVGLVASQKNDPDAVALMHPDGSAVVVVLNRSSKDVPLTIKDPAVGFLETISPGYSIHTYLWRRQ
Type: cell-based
Design: key: Increase in comparison with non-treated of >2.0 fold is shown as A; Increase in comparison with non-treated of >1.7-2.0 fold is shown as B; Increase in comparison with non-treated of 1.2-1.7 fold is shown as C; D means that no increase compared with non-treated cells was detected in this method
Protocol: Human fibroblasts from a patient with Gaucher disease homozygous for p.L444P mutation (GM08760A) were purchased from Coriell Institute for Medical Research (Camden, NJ, USA).
Fibroblasts were seeded at 5×10^3 cells per well in 96-well cell culture plates (Corning, NY, USA) in Dulbecco's Modified Eagle's Media (DMEM) supplemented with 10% of fetal bovine serum (FBS), 1% penicillin/streptomycin (P/S) (Thermo Fisher Scientific, Waltham, MA, USA) and grown at 37° C., 5% CO2 overnight for cell attachment. Subsequently, cells were incubated in the absence or presence of the compounds at the desired concentration for 4 days. After incubation, cells were washed twice with phosphate-buffered saline (PBS) and enzyme activity assay was performed.
β-glucocerebrosidase activity in intact cultured cells was measured by using 4-methylumbelliferyl-β-D-glucopyranoside substrate (Apollo Scientific, UK). Briefly, cells were incubated with 4-MU-β-D-glucopyranoside in 0.1 M acetate buffer pH=4 at 37° C. for 1 hour. The reaction was stopped by adding 200 μL at 100 mM glycine-NaOH pH=10.7. The liberated 4-MU was measured on a GloMax Discover plate reader (Promega, Madison, WI, USA) with and excitation at 340 nm and emission at 460 nm. Enzyme activities were expressed in treated cells as X-fold increase in comparison with non-treated cells (X=1 represents no enhancement).
The capacity of the compounds of the disclosure to produce an increase in enzyme activity in GBA fibroblasts bearing L444P at concentrations between 6 and 50 μM is denoted as follows: • Increase in comparison with non-treated of >2.0 fold is shown as A • Increase in comparison with non-treated of >1.7-2.0 fold is shown as B • Increase in comparison with non-treated of 1.2-1.7 fold is shown as C • D means that no increase compared with non-treated cells was detected in this method • ND means “not determined”

Structure (SMILES) | Range: increase in enzyme activity in comparison with non-treated cells (Enzyme activity assay for exemplified compounds) | Range: increase in enzyme activity in comparison with non-treated cells (Enzyme activity assay for compounds of Examples 33-141)
CN(Cc1ccccc1)C(=O)c1cc(N)nc(Nc2ccccc2O)n1 [Example 4, 6-Amino-N-benzyl-2-((2-hydroxyphenyl)amino)-N-methylpyrimidine-4-carboxamide] | C (Increase in comparison with non-treated of 1.2-1.7 fold is shown as C) | 
Cc1c(F)cccc1Nc1cc(N)cc(C(=O)NC2Cc3ccccc3C2)n1 [Example 108, 4-Amino-N-(2,3-dihydro-1H-inden-2-yl)-6-((3-fluoro-2-methylphenyl)amino)picolinamide] |  | B (Increase in comparison with non-treated of >1.7-2.0 fold is shown as B)
COc1ccccc1Nc1nc(N)nc(C(=O)NC2CCc3ccccc3C2)n1 (stereo not drawn) [Example 20, 4-Amino-6-((2-methoxyphenyl)amino)-N-(1,2,3,4-tetrahydronaphthalen-2-yl)-1,3,5-triazine-2-carboxamide] | C (Increase in comparison with non-treated of 1.2-1.7 fold is shown as C) | 
Nc1cc(C(=O)Nc2ccccc2)nc(Nc2ccccc2O)n1 [Example 11, 6-Amino-2-((2-hydroxyphenyl)amino)-N-phenylpyrimidine-4-carboxamide] | B (Increase in comparison with non-treated of >1.7-2.0 fold is shown as B) | 
Nc1cc(Nc2ccccn2)cc(C(=O)Nc2ccccc2)n1 [Example 79, 6-Amino-N-phenyl-4-(pyridin-2-ylamino)pyridine-2-carboxamide] |  | C (Increase in comparison with non-treated of 1.2-1.7 fold is shown as C)
Nc1cc(C(=O)N2Cc3ccccc3C2)nc(Nc2cccc(Cl)c2)n1 [Example 41] |  | D
Nc1cc(Nc2ccccc2O)nc(C(=O)NC2Cc3ccccc3C2)c1 [Example 129, 4-Amino-N-(2,3-dihydro-1H-inden-2-yl)-6-((2-hydroxyphenyl)amino)picolinamide] |  | C (Increase in comparison with non-treated of 1.2-1.7 fold is shown as C)
COc1cccc(Nc2nc(N)nc3c2CCN(Cc2ccccc2)C3)c1 [Example 23, 7-Benzyl-N4-(3-methoxyphenyl)-5,6,7,8-tetrahydropyrido[3,4-d]pyrimidine-2,4-diamine] | C (Increase in comparison with non-treated of 1.2-1.7 fold is shown as C) | 
Nc1cc(Nc2cccc3c2OCO3)nc(C(=O)NC2Cc3ccccc3C2)c1 [Example 89, 4-Amino-6-(benzo[d][1,3]dioxol-4-ylamino)-N-(2,3-dihydro-1H-inden-2-yl)picolinamide] |  | C (Increase in comparison with non-treated of 1.2-1.7 fold is shown as C)
Nc1cc(Nc2cccc3c2OCO3)nc(C(=O)N2Cc3ccccc3C2)c1 [Example 95, (4-Amino-6-(benzo[d][1,3]dioxol-4-ylamino)pyridin-2-yl)(isoindolin-2-yl)methanone] |  | C (Increase in comparison with non-treated of 1.2-1.7 fold is shown as C)
CN(C(=O)c1cc(Nc2ccccc2O)nc(N)n1)C1Cc2ccccc2C1 [Example 82, 2-Amino-N-(2,3-dihydro-1H-inden-2-yl)-6-((2-hydroxyphenyl)amino)-N-methylpyrimidine-4-carboxamide] |  | C (Increase in comparison with non-treated of 1.2-1.7 fold is shown as C)
COc1ccccc1Nc1cc(N)cc(C(=O)N2Cc3ccccc3C2)n1 [Example 96, (6-(2-Methoxyphenylamino)-4-aminopyridin-2-yl)(isoindolin-2-yl)methanone] |  | C (Increase in comparison with non-treated of 1.2-1.7 fold is shown as C)
Nc1cc(C(=O)N2Cc3ccccc3C2)nc(Nc2cccc(O)c2)n1 [Example 39, (6-Amino-2-((3-hydroxyphenyl)amino)pyrimidin-4-yl)(isoindolin-2-yl)methanone] |  | C (Increase in comparison with non-treated of 1.2-1.7 fold is shown as C)
Nc1cc(Nc2ccccc2F)cc(C(=O)N2CCN(c3ccccc3)CC2)n1 [Example 62] |  | D
Nc1nc(Nc2ccccc2O)cc(C(=O)NC2Cc3ccccc3C2)n1 [Example 81, 2-amino-N-(2,3-dihydro-1H-inden-2-yl)-6-((2-hydroxyphenyl)amino)pyrimidine-4-carboxamide] |  | B (Increase in comparison with non-treated of >1.7-2.0 fold is shown as B)
COc1ccccc1Nc1cc(N)nc(C(=O)N2CCN(c3ccccc3)CC2)c1 [Example 51, (6-Amino-4-((2-methoxyphenyl)amino)pyridin-2-yl)(4-phenylpiperazin-1-yl)methanone] |  | C (Increase in comparison with non-treated of 1.2-1.7 fold is shown as C)
Nc1cc(C(=O)NC2Cc3ccccc3C2)nc(Nc2ccccc2O)n1 [Example 13, 6-Amino-N-(2,3-dihydro-1H-inden-2-yl)-2-((2-hydroxyphenyl)amino)pyrimidine-4-carboxamide] | C (Increase in comparison with non-treated of 1.2-1.7 fold is shown as C) | 
Nc1cc(Nc2cccc3c2OCO3)cc(C(=O)Nc2ccccc2)n1 [Example 73, 6-Amino-4-(benzo[d][1,3]dioxol-4-ylamino)-N-phenylpicolinamide] |  | C (Increase in comparison with non-treated of 1.2-1.7 fold is shown as C)
Nc1cc(C(=O)N2CCN(c3ccccc3)CC2)nc(N[C@H]2CCCC[C@@H]2O)n1 [Example 14, (6-Amino-2-(((1S,2S)-2-hydroxycyclohexyl)amino)pyrimidin-4-yl)(4-phenylpiperazin-1-yl)methanone] | D | 
Nc1cc(Nc2ccccc2O)cc(C(=O)NC2Cc3ccccc3C2)n1 [Example 67, 6-Amino-N-(2,3-dihydro-1H-inden-2-yl)-4-((2-hydroxyphenyl)amino)picolinamide] |  | B (Increase in comparison with non-treated of >1.7-2.0 fold is shown as B)
Nc1cc(C(=O)N2CCc3ccccc32)nc(Nc2ccccc2O)n1 [Example 37, (6-Amino-2-((2-hydroxyphenyl)amino)pyrimidin-4-yl)(indolin-1-yl)methanone] |  | D
Nc1cc(Nc2cccnc2)nc(C(=O)NC2Cc3ccccc3C2)c1 [Example 102, 4-Amino-N-(2,3-dihydro-1H-inden-2-yl)-6-(pyridin-3-ylamino)picolinamide] |  | C (Increase in comparison with non-treated of 1.2-1.7 fold is shown as C)
Cl.Nc1cc(Nc2cc(F)cc(F)c2)nc(C(=O)NC2Cc3ccccc3C2)c1 [Example 140, 4-Amino-6-((3,5-difluorophenyl)amino)-N-(2,3-dihydro-1H-inden-2-yl)picolinamide hydrochloride] |  | A (Increase in comparison with non-treated of >2.0 fold is shown as A)
COc1ccccc1Nc1cc(N)nc(C(=O)NC2Cc3ccccc3C2)c1 [Example 76, 6-Amino-N-(2,3-dihydro-1H-inden-2-yl)-4-((2-methoxyphenyl)amino)picolinamide] |  | D
